Reference: patent US10959992B2, “Methods of treatment of asthma and COPD” (Bridge Pharma, Inc., priority 2019, dated 2021)
Converted amounts (≈) assume the structure as drawn. Like-named read-outs stand apart in the source and are kept apart here.

Tests used:
[1] = Lung/plasma distribution of norketotifen in dogs; type: in vivo, Beagle dogs; conditions: for Post-dose Lung Concentration / Post-dose Plasma Concentration / Kp: dog; for Post-dose Lung Concentration / Post-dose Plasma Concentration: oral 8.0 mg/kg/day NK-FB for four days; for Kp: female, Beagle, lung/plasma, 11.46 mg/kg/day
Procedure: One group (N=3) of female Beagle dogs (8 to 10 kg/24 to 28 months) were administered racemic norketotifen hydrogen fumarate (RS-NK-HF) 11.46 mg/kg/day for 4 consecutive days. (11.46 mg of NK-HF is equal to 8.0 mg of the free base (RS-NK-FB).
Plasma samples were collected daily on Days 2, 3 and 4. The last blood samples were taken four hours after dosing on Day 4. Lung and plasma concentrations of norketotifen were determined using a qualified LC-MS-MS analytical method. LLQ was <0.5 ng/ml. Immediately after blood collection on Day 4, all animals were euthanized with an overdose of pentobarbital, administered intravenously, followed by exsanguination. Lung tissue samples (approximately 1 g each) were collected from each animal from the left and right pulmonary lobes, samples were trimmed and dried of any access blood using absorbent paper, weighed and then kept in conical tubes frozen on dry ice and stored at −80° C. pending analysis. Six samples from each animal (3 samples per side) were analyzed.

[2] = system: oxazolone-induced increase in ear thickness; experiment: Oxazolone test of immunosuppression (ear thickness); type: in vivo, BALB/c mice; conditions: for Increase in ear thickness (mm): control 0.153; for Increase in ear thickness (%): control 100.0
Procedure: Male BALB/c mice, 20-24 grams, 7-12 weeks, were used. The sensitization dosing (Day 1) consisted of painting the ventral portion of the pre-shaved abdominal skin with 0.1 ml of 3.0% oxazolone in 70% ethanol. Test articles were administered orally in 1.0% methyl-cellulose, starting on Day 1 and continuing for 10 consecutive days. The challenge dosing consisted of the application of 0.05 ml of 3.0% oxazolone in 70% ethanol on both sides of the outer pinna of the right ear. The thickness of both ears of all animals was measured with a calliper before the challenge dose and 24 hours after the administration of the challenge dose (Day 10). The ear thickness of untreated mice was 0.19 to 0.20 mm.
Justification of the model: The classic oxazolone test method was used with minor modifications. This method has been used for over 40 years in numerous drug development projects.

[3] = system: croton oil-induced ear swelling; experiment: Croton oil-induced ear swelling; type: in vivo, CD-1 female mice; parameters: Average ear thickness: unit not given beside the values; conditions: for Average ear thickness: single oral dose 10 mg/kg 60 min before
Procedure: The effects of NK, PRED and the vehicle (5% PEG in water) were tested orally in CD-1 female mice. Under the test protocol, 20 μl of 1.0% croton oil in acetone was applied topically to both ears of three groups of mice, each group consisting of 6 mice. No attempt was made to remove the croton oil solution since the solvent evaporated within 30 seconds. The oral doses of NK and PRED were 10 mg/kg (10 ml/kg) bodyweight for both compounds and were administered 60 min before the croton oil applications. Vehicle-treated mice were dosed 10 ml/kg of water, containing 5% polyethylene glycol (PEG), which was also the solvent for the test articles. Ear thickness was measured with an electronic caliper and mean ear thickness (N=12; right+left ears) were calculated and compared with the thickness of ears from vehicle-treated mice (Student's t-test).

Malassezia pachydermatis = experiment: Antimicrobial activity (MIC), Malassezia pachydermatis; type: cell-based; conditions: Fungi: Mp, MIC refers to lethal concentrations
Trichophyton rubrum = experiment: Antimicrobial activity (MIC), Trichophyton rubrum; type: cell-based; conditions: Mold: Tr, MIC refers to lethal concentrations
[4] = system: Trichophyton interdigitale; experiment: Antimicrobial activity (MIC), Trichophyton interdigitale; type: cell-based; conditions: Mold: Ti, MIC refers to lethal concentrations
Staphylococcus aureus = experiment: Antimicrobial activity (MIC), Staphylococcus aureus; type: cell-based; conditions: Bacteria: Sa, MIC refers to lethal concentrations
[5] = system: Staphylococcus intermedius; experiment: Antimicrobial activity (MIC), Staphylococcus intermedius; type: cell-based; conditions: Bacteria: Si, MIC refers to lethal concentrations
Klebsiella pnemoniae = experiment: Antimicrobial activity (MIC), Klebsiella pnemoniae; type: cell-based; conditions: Bacteria: Kp, MIC refers to lethal concentrations
Haemophilus influenza = experiment: Antimicrobial activity (MIC), Haemophilus influenza; type: cell-based; conditions: Bacteria: Hi, MIC refers to lethal concentrations
IL-4 = experiment: PHA-induced release of IL-4 from human buffy coats; type: cell-based; conditions: PHA 5 μg/ml, 16 hours, inhibition
Procedure: (§1) The study was conducted in two phases. The first phase included optimization of the test methodology and included also dose-range finding studies, using buffy coats from 3 human donors, stimulated with phytohemagglutinin (PHA). The concentrations of the test article and the duration of exposure were optimized to obtain acceptable dose-response ratios. Following optimization of the test conditions, a final protocol was issued. In the Main Study, buffy coats from 5 healthy human male donors were stimulated with PHA, 5 μg/ml.
(§2) The inhibitory effects of three concentrations of NK and one concentration of ketotifen were evaluated in the Main Study. The buffy coats were resuspended in assay media and were pre-incubated for 30 min with either vehicle/saline, ketotifen (10 μM) or norketotifen (1.0; 10 or 100 μM). Following these preincubations, the white blood cell suspensions were stimulated for 16 hours with PHA, 5 μg/ml. The cell system supernatants were then harvested and stored frozen.

IL-1β = experiment: PHA-induced release of IL-1β from human buffy coats; type: cell-based; conditions: PHA 5 μg/ml, 16 hours, inhibition
Procedure: as §1, §2

IFN-γ = experiment: PHA-induced release of IFN-γ from human buffy coats; type: cell-based; conditions: PHA 5 μg/ml, 16 hours, inhibition
Procedure: as §1, §2

IL-8 = experiment: PHA-induced release of IL-8 from human buffy coats; type: cell-based; conditions: PHA 5 μg/ml, 16 hours, inhibition
Procedure: as §1, §2

Water solubility = type: physicochemical
sedation = conditions: orally administered, humans; U.S. Pat. Nos. 9,138,431 and 9,345,697; cited from earlier work
[6] = 10.0 mg/kg/day oral for 10 days
[7] = 30.0 mg/kg/day oral for 10 days

For `O=C1Cc2ccccc2C(=C2CCNCC2)c2ccsc21` (racemic) [norketotifen], the “Post-dose Lung Concentration” value ([1]; animal 001, Day 4) was 23590 ng/g, the “Post-dose Plasma Concentration” value ([1]; animal 001, Day 4) was 301 ng/mL and the “Post-dose Lung Concentration” value ([1]; animal 002, Day 4) was 79546 ng/g. The “Post-dose Plasma Concentration” value ([1]; animal 002, Day 4) was 1651 ng/mL, the “Post-dose Lung Concentration” value ([1]; animal 003, Day 4) was 61093 ng/g and the “Post-dose Plasma Concentration” value ([1]; animal 003, Day 4) was 733 ng/mL. It also gave a Kp ([1]; oral, animal 001, Day 4, read-out: Lung / Plasma Ratio in Dogs) of 78.4, a Kp ([1]; oral, animal 002, Day 4, read-out: Lung / Plasma Ratio in Dogs) of 48.2 and a Kp ([1]; oral, animal 003, Day 4, read-out: Lung / Plasma Ratio in Dogs) of 83.3. For the same molecule, the Kp ([1]; po, mean of three dogs, Day 4, once daily oral dosing, read-out: Lung / Plasma Ratio in Dogs, Mean ± SEM) was 70, the “Lung / Plasma Ratio in Dogs, Mean ± SEM” value ([1]; mean of three dogs, Day 4, once daily oral dosing, listed as NK) was 70.0 ± 11.0 and the “Immunosuppression (%)” value [2, 6] was 3.9%. For the same molecule, the “Increase in ear thickness (mm)” value [2, 6] was 0.147 mm, the “Increase in ear thickness (%)” value [2, 6] was 96.1% and the “Immunosuppression (%)” value [2, 7] was 8.5%. For the same molecule, the “Increase in ear thickness (mm)” value [2, 7] was 0.140 mm, the “Increase in ear thickness (%)” value [2, 7] was 91.5% and the “Immuno-suppressant activity (conclusion in words)” value ([2]; daily oral dosing for 10 days to mice, RS-norketotifen 10 or 30 mg/kg, prednisolone at 10 times lower doses) was “did not induce immuno-suppressant activity”. The Average ear thickness ([3]; 0 (predose) min after croton oil, vehicle 0.21 ± 0.02) was 0.21 ± 0.02, the Average ear thickness ([3]; 90 min after croton oil, vehicle 0.29 ± 0.04) was 0.24 ± 0.02 and the Average ear thickness ([3]; 120 min after croton oil, vehicle 0.28 ± 0.02) was 0.25 ± 0.02. The “Anti-inflammatory effect compared with vehicle control group (conclusion in words)” value ([3]; single oral dose 10 mg/kg, croton oil ear swelling in mice) was “statistically significant anti-inflammatory effects”, the MIC (Malassezia pachydermatis) was 1000 µg/mL (≈ 3390 µM) and the MIC (Trichophyton rubrum) was 500 µg/mL (≈ 1690 µM). It also gave an MIC [4] of 500 µg/mL (≈ 1690 µM), an MIC (Staphylococcus aureus) of 500 µg/mL (≈ 1690 µM) and an MIC [5] of 250 µg/mL (≈ 846 µM). For the same molecule, the MIC (Klebsiella pnemoniae) was 500 µg/mL (≈ 1690 µM), the MIC (Haemophilus influenza) was “about 0.25 mg/mL” and the MIC (Haemophilus influenza; Haemophilus, read-out: MIC) was 250 µg/mL (≈ 846 µM). The “Effect on PHA-induced release of IL-4 (%)” value (from here on “Effect … of IL-4 (%)”) (IL-4; 1 uM) was 0.00%, the “Effect … of IL-4 (%)” value (IL-4; 10 uM) was 14.32% and the “Effect … of IL-4 (%)” value (IL-4; 100 uM) was 98.27^1%. For the same molecule, the “Effect on PHA-induced release of IL-1β (%)” value (shortened to “Effect … of IL-1β (%)”) (IL-1β; 1 uM) was 0.00%, the “Effect … of IL-1β (%)” value (IL-1β; 10 uM) was 16.20% and the “Effect … of IL-1β (%)” value (IL-1β; 100 uM) was 57.00^1%. The “Effect on PHA-induced release of IFN-γ (%)” value (“Effect … of IFN-γ (%)” for short) (IFN-γ; 1 uM) was 0.00%, the “Effect … of IFN-γ (%)” value (IFN-γ; 10 uM) was 16.54^2% and the “Effect … of IFN-γ (%)” value (IFN-γ; 100 uM) was 71.56^1%. For the same molecule, the “Effect on PHA-induced release of IL-8 (%)” value (“Effect … of IL-8 (%)” below) (IL-8; 1 uM) was 10.29^2%, the “Effect … of IL-8 (%)” value (IL-8; 10 uM) was 34.36^1% and the “Effect … of IL-8 (%)” value (IL-8; 100 uM) was 78.29^1%. The Water solubility (Water solubility) was “about 2%”, the solubility (Water solubility; water) was about 20 mg/mL (≈ 67700 µM) and the Sedative side effects (sedation) was “free from sedative side effects”.
